Key:
[1] = tested on: MIA-induced degenerative arthritis model; test: MIA-induced degenerative arthritis model; assay type: in vivo, C57BL/6J mice; conditions: for diameter of the knee joint: day 1 after MIA injection, i.p.
Method: As a degenerative arthritis model, 9-week-old specific pathogen free (SPF) male C57BL/6J mice were anesthetized, the area around the right knee joint was cleanly shaved, and 10 μL of MIA solution (monosodium iodoacetate 0.5 mg in 10 μL 0.9% sterile saline) was injected into the knee joint cavity to induce arthritis. From 3 days before MIA (monosodium iodoacetate) solution injection, Amuc_1409 or PEP001, PEP002, PEP003, PEP004, PEP005, PEP006, PEP007, PEP008, PEP009, PEP010, PEP011, PEP012, or PEP013 was dissolved in PBS buffer at a concentration of 6.7 μM and then injected into the mouse peritoneal cavity at 150 μL per animal once a day at the same time. On day 3 (0 days) after administration of Amuc_1409 or PEP001 to PEP013, an additional intraperitoneal injection was given 1 hour before MIA injection, the drug was intraperitoneally injected once a day at the same time after MIA injection, and the experiment was terminated on the 30th day after MIA injection. In the control group, the same volume of PBS buffer was injected intraperitoneally. After MIA injection, the diameter of the knee joint was measured using a caliper for 7 days at 2-day intervals (0, 1, 3, 5, and 7 days) to evaluate swelling caused by inflammatory changes of the joint. […] At this time, the weight bearing on the limb was lower as arthritis was more severe. The weight-bearing weight (g) of each of both paws was measured, and in this experiment, the value was expressed as the ratio (%) of the right hind limb with arthritis to the total hind limb. Weight bearing ratio (%)=weight-bearing weight of right hind limb with arthritis (g)/weight-bearing weight of both hind limbs (g)×100 After termination of the experiment, the test animals were sacrificed, then the knee joint tissue of the mouse was fixed with 10% neutral buffered formalin, and the bone was decalcified with a 0.5 M EDTA solution. Next, the joint tissue was embedded in paraffin to prepare a 5 μm joint section, and Safranin O staining was performed to histopathologically analyze the degree of damage to the cartilage tissue. At this time, the degree of damage to the cartilage tissue was evaluated by examining the degree of safranin O staining of the sections and scored according to OARSI (Osteoarthritis Research Society International grade) guidelines. The scoring criteria according to the OARSI guidelines are as follows (Table 1). [table]

[2] = tested on: collagen induced arthritis (CIA) model; test: Collagen induced arthritis (CIA) rheumatoid arthritis model; assay type: in vivo, DBA/1J mice; conditions: vs PBS buffer group; for thickness of the ankle joint: at the end of the experiment
[3] = tested on: animal model of metabolic disease accompanied by obesity/diabetes and chronic inflammation; test: High-fat diet obesity/diabetic metabolic disease model; assay type: in vivo, C57BL/6J mice; conditions: for blood glucose in insulin resistance experiment (ITT): after insulin administration, time as stated in the value; for fasting blood glucose: after fasting for 16 hours at the end of the test; for body weight: oral, 3 weeks on high-fat diet; for maintenance of the decreased blood glucose in insulin resistance experiment: until 120 minutes after insulin
Method: An animal model of metabolic disease accompanied by obesity/diabetes and chronic inflammation was induced by feeding a high-fat diet.
The experiment in the groups administered with Amuc_1409 or PEP001 to PEP005 was performed using 8-week-old SPF male C57BL/6J mice, and the metabolic disease accompanied by obesity/diabetes and chronic inflammation was induced by ad libitum feeding of a high-fat diet for 45 weeks or 8 weeks. Specifically, mice fed a high-fat diet for 45 weeks were fed a high-fat diet for an additional 3 weeks, and Amuc_1409 was dissolved in PBS buffer at a concentration of 2.4 μM and then orally administered to the mice by 150 μL per animal at the same time once a day until the end of the experiment, or mice fed a high-fat diet for 8 weeks were fed a high-fat diet for an additional 3 weeks, and PEP001, PEP002, PEP003, PEP004, or PEP005 was dissolved in PBS buffer at a concentration of 2.4 μM and then orally administered to the mice by 150 μL per animal at the same time once a day until the end of the experiment. To the control group, PBS buffer was orally administered in the same manner.
For the experiment in the groups administered with PEP006 to PEP013, 8-week-old male C57BL/6J mice were used, and the metabolic disease accompanied by obesity/diabetes and chronic inflammation was induced by ad libitum feeding of a high-fat diet for 32, 50, or 53 weeks. Mice fed a high-fat diet for 32 weeks were fed a high-fat diet for an additional 3 weeks, and a novel tetrapeptide PEP006 was dissolved in PBS buffer at a concentration of 0.15 μg/150 μL (PEP006) and then orally administered to the mice by 150 μL per animal at the same time until the end of the test, mice fed a high-fat diet for 50 weeks were fed a high-fat diet for an additional 3 weeks, and a novel tetrapeptide PEP007, PEP008, PEP009, or PEP010 was dissolved in PBS buffer at a concentration of 0.2 μg/150 μL (PEP007 to PEP013) and then orally administered to the mice by 150 μL per animal at the same time until the end of the test, and mice fed a high-fat diet for 53 weeks were fed a high-fat diet for an additional 3 weeks, and a novel […] PEP011, PEP012, or PEP013 was dissolved in PBS buffer at a concentration of 0.2 μg/150 μL (PEP007 to PEP013) and then orally administered to the mice by 150 μL per animal at the same time until the end of the test. To the control group, PBS buffer was orally administered in the same manner.
For all animals, general symptoms were observed immediately before administration at the start of administration, and the body weight was measured until the end of the test after group separation.
Insulin (Humalog, 1 unit/kg) was intraperitoneally injected into mice fasted for 4 hours at 2 weeks after the start of test substance administration (2 weeks in groups administered with Amuc_1409 and PEP001 to PEP005 and 3 weeks in groups administered with PEP006 to PEP013), and then blood glucose at 30 minutes, 60 minutes, 90 minutes, and 120 minutes was measured from a small amount of blood obtained through a wound at the tip of the tail using ACCU-CHECK (Roche), thereby performing an insulin tolerance test (ITT).
At the end of the test, fasting blood glucose was measured from a small amount of blood obtained through a wound at the tip of the tail of the mouse fasted for 16 hours using ACCU-CHECK, and blood was collected from the orbital venous plexus using a heparin-treated capillary tube. The collected blood was immediately centrifuged at 10,000 rpm (4° C.) for 10 minutes to separate plasma, and then subjected to analysis of total cholesterol (TC) and low-density lipoprotein cholesterol (LDL-C), which are blood abnormal lipid indicators, using an automated blood biochemical analyzer.

[4] = 2 weeks after MIA injection, vs PBS buffer group
[5] = 4 weeks after MIA injection, vs PBS buffer group
[6] = day 3 after MIA injection, vs PBS buffer group
[7] = day 5 after MIA injection, vs PBS buffer group
[8] = day 7 after MIA injection, vs PBS buffer group
[9] = 2 weeks and 4 weeks after MIA injection, vs PBS buffer group
[10] = days 3, 5, and 7 after MIA injection, vs PBS buffer group

IGAY (PEP008)
weight bearing ratio [1, 4]: significantly increased
weight bearing ratio [1, 5]: significantly increased
diameter of the knee joint ([1]; vs PBS buffer group): significantly decreased
thickness of the knee joint [1, 6]: significantly decreased
thickness of the knee joint [1, 7]: significantly decreased
thickness of the knee joint [1, 8]: significantly decreased
thickness of the ankle joint [2]: significantly decreased
arthritis index (clinical score by date) [2]: significantly decreased from day 30 to day 32 after the first CII
swelling of the hind paws by macrophotography [2]: remarkably improved
blood glucose in insulin resistance experiment (ITT) ([3]; vs PBS buffer group): decreased to a significant level from 30 minutes to 120 minutes after insulin administration
AUC value of the insulin resistance experiment ([3]; vs PBS buffer group): significantly decreased

KGAY (PEP003)
weight bearing ratio [1, 9]: significantly increased
diameter of the knee joint ([1]; vs PBS buffer group): significantly decreased
thickness of the knee joint [1, 10]: significantly decreased
thickness of the ankle joint [2]: significantly decreased
arthritis index (clinical score by date) [2]: significantly decreased from day 26 after the first CII injection to the experiment end day
swelling of the hind paws by macrophotography [2]: reduced overall
fasting blood glucose [3]: decreased
blood glucose in insulin resistance experiment (ITT) ([3]; vs PBS buffer group): decreased at 30 minutes after insulin administration
body weight ([3]; vs PBS buffer group): significantly decreased
maintenance of the decreased blood glucose in insulin resistance experiment [3]: significantly maintained until 120 minutes
AUC value of the insulin resistance experiment ([3]; vs PBS buffer group): decreased
LDL-C level in blood ([3]; vs PBS buffer group): significantly decreased
TC (total cholesterol) level in blood ([3]; vs PBS buffer group): significantly decreased
abdominal fat ([3]; vs PBS buffer group): decreased

RGAY (PEP007)
weight bearing ratio [1, 4]: significantly increased
weight bearing ratio [1, 5]: significantly increased
diameter of the knee joint ([1]; vs PBS buffer group): significantly decreased
thickness of the knee joint [1, 6]: significantly decreased
thickness of the knee joint [1, 7]: tended to decrease
thickness of the knee joint [1, 8]: significantly decreased
thickness of the ankle joint [2]: significantly decreased
arthritis index (clinical score by date) [2]: significantly decreased from day 28 after the first CII injection to the experiment end day
swelling of the hind paws by macrophotography [2]: remarkably improved
blood glucose in insulin resistance experiment (ITT) ([3]; vs PBS buffer group): decreased to a significant level from 30 minutes to 120 minutes after insulin administration
AUC value of the insulin resistance experiment ([3]; vs PBS buffer group): decreased close to a significant level

SGAY (PEP009)
weight bearing ratio [1, 4]: tended to increase close to a significant level
weight bearing ratio [1, 5]: significantly increased
diameter of the knee joint ([1]; vs PBS buffer group): tended to decrease
thickness of the knee joint [1, 6]: significantly decreased
thickness of the knee joint [1, 7]: tended to decrease
thickness of the knee joint [1, 8]: significantly decreased
thickness of the ankle joint [2]: significantly decreased
arthritis index (clinical score by date) [2]: significantly decreased from day 30 after the first CII injection to the experiment end day
swelling of the hind paws by macrophotography [2]: remarkably improved
blood glucose in insulin resistance experiment (ITT) ([3]; vs PBS buffer group): decreased to a significant level from 30 minutes to 120 minutes after insulin administration
AUC value of the insulin resistance experiment ([3]; vs PBS buffer group): decreased close to a significant level

VGAY (PEP010)
weight bearing ratio [1, 4]: significantly increased
weight bearing ratio [1, 5]: significantly increased
diameter of the knee joint ([1]; vs PBS buffer group): tended to decrease
thickness of the knee joint [1, 6]: significantly decreased
thickness of the knee joint [1, 7]: significantly decreased
thickness of the knee joint [1, 8]: significantly decreased
thickness of the ankle joint [2]: significantly decreased
arthritis index (clinical score by date) [2]: significantly decreased from day 30 after the first CII injection to the experiment end day
swelling of the hind paws by macrophotography [2]: remarkably improved
blood glucose in insulin resistance experiment (ITT) ([3]; vs PBS buffer group): decreased to a significant level from 30 minutes to 120 minutes after insulin administration
AUC value of the insulin resistance experiment ([3]; vs PBS buffer group): decreased close to a significant level

B1: Amuc_1409: SEQ ID NO: 15, functional fragment obtained by eliminating the leader sequence from SEQ ID NO: 14; protein derived from Akkermansia muciniphila (protein)
chain: IPESSVPAAAVSSIKGAYPNAGPIEWDSEMHGMERIYEAEFRINGFQFDVKIAPDGKIVRIKEEIAASSLPEAVRASVLKRYPGCRIKEAEKITEGELVRYKVEVADSRDDYDVLIAPDGNILHVDR
modifications: Amuc_1409_fragment
notes: protein derived from Akkermansia muciniphila
weight bearing ratio [1, 9]: significantly increased
histopathological findings in knee joint tissue, safranin O staining ([1]; after termination of the experiment): only a slight loss of safranin O was observed in the cartilage zone and the overall cartilage morphology was maintained
diameter of the knee joint ([1]; vs PBS buffer group): significantly decreased
thickness of the knee joint [1, 10]: significantly decreased
degree of cartilage destruction by OARSI score ([1]; vs PBS buffer group): significantly decreased
arthritis index ([2]; after day 30 until the experiment end day): significantly decreased
thickness of the ankle joint [2]: significantly decreased
arthritis index ([2]; day 30 after the first CII injection): decreased close to a significant level
histopathological changes in hind paw tissue (H&E): inflammatory cell infiltration, synovial proliferation, pannus formation [2]: significantly diminished
quantitative histopathological arthritis index [2]: significantly decreased or tended to decrease
swelling of the hind paws by macrophotography [2]: reduced overall
fasting blood glucose [3]: significantly decreased
blood glucose in insulin resistance experiment (ITT) ([3]; vs PBS buffer group): decreased from 30 minutes to 120 minutes after insulin administration
body weight ([3]; vs PBS buffer group): decreased from the initial body weight
maintenance of the decreased blood glucose in insulin resistance experiment [3]: significantly maintained until 120 minutes
AUC value of the insulin resistance experiment ([3]; vs PBS buffer group): decreased close to a significant level
abdominal fat ([3]; vs PBS buffer group): significantly decreased
